Source: BindingDB's records for doi:10.1111/cbdd.12836 (Korea Institute of Science and Technology, 2017)

Tests used:
[1] = biological target: Serine/threonine-protein kinase B-raf [V600E] (Homo sapiens, UniProt P15056, V600E); assay: In vitro Enzyme Assay; details: pH 7.5; 25 °C
Method: (§1) Reaction Biology Corporation Kinase HotSpotSM service: In a final reactionvolume of 25 μL, kinase (5-10 mU) is incubated with 25 mM Tris pH 7.5, 0.02 mM ethylene glycol tetracetic acid (EGTA), 0.66 mg/mL myelin basic protein, […], and [γ33P-ATP] (specific activity approx. 500 c.p.m./pmol,concentration as required). The reaction is initiated by the addition of the Mg-ATP mix. After incubation for 40 min at room temperature, the reaction is stopped by the addition of 5 μL of a 3% phosphoric acid solution. About 10 μL ofthe reaction solution is then spotted onto a P30 filtermat and washed three times for 5 min in 75 mM phosphoric acid and once in methanol prior to drying and scintillation counting.

[2] = biological target: RAF proto-oncogene serine/threonine-protein kinase (Homo sapiens, UniProt P04049); assay: In vitro Enzyme Assay; details: pH 7.5; 25 °C
Method: as §1

Serine/threonine-protein kinase B-raf [V600E], sequence (P15056 2-766 V600E limits assumed): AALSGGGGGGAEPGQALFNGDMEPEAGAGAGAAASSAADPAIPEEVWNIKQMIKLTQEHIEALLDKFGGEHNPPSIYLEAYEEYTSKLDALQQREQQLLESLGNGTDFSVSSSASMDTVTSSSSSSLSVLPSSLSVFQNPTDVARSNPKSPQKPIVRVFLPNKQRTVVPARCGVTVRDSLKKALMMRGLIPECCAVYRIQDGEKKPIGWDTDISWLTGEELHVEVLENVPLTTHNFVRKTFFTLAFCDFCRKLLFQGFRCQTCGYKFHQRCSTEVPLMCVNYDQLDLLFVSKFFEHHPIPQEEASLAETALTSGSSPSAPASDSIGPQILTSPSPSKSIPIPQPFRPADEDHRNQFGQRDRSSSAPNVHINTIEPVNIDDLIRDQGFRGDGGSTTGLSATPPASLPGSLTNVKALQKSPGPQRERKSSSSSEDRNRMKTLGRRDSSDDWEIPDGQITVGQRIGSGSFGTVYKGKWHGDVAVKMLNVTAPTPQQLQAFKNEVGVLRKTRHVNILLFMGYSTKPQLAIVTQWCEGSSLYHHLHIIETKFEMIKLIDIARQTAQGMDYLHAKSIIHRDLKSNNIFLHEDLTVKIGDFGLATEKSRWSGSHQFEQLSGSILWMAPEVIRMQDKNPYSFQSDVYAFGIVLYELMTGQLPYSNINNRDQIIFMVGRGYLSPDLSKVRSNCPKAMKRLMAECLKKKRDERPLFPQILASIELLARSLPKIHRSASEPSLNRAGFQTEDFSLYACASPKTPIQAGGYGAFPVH
RAF proto-oncogene serine/threonine-protein kinase, sequence (P04049 whole entry): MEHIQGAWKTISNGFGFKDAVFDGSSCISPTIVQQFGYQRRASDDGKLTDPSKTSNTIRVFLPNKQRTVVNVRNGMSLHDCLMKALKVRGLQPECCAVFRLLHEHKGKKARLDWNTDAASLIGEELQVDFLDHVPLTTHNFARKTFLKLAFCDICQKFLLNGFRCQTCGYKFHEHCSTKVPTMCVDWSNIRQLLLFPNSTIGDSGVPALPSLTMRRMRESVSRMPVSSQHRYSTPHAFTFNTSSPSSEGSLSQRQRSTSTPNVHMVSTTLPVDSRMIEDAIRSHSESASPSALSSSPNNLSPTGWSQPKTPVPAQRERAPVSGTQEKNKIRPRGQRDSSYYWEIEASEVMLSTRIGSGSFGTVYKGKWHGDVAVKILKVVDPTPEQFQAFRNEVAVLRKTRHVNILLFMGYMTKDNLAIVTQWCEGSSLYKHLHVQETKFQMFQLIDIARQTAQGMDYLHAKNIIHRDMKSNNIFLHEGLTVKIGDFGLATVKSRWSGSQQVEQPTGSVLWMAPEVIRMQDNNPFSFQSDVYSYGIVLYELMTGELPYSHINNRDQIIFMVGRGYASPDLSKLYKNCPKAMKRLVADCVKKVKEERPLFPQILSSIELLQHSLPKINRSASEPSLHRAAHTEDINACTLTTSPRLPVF

Q: Which IC50 [1] does the source give for `CNC(=O)c1cc(Oc2cccc3nc(Nc4cccc(C(C)(C)C)c4)ccc23)ccn1` [4-((2-((3-(Tert-butyl)phenyl)amino)quinolin-5-yl)oxy)-N-methylpicolinamide (6d)] here?
A: Its IC50 is greater than 100 µM.

Q: And the IC50 [2]?
A: Its IC50 is 92.6 µM.

Q: Which IC50 [1] does the source give for `CNC(=O)c1cc(Oc2cccc3nc(Nc4ccc(Cl)c(C(F)(F)F)c4)ccc23)ccn1` [4-((2-((4-Chloro-3-(trifluoromethyl)phenyl)amino)quinolin-5-yl)oxy)-N-methylpicolinamide (6j)] here?
A: Its IC50 is greater than 100 µM.

Q: And the IC50 [2]?
A: The IC50 was greater than 100 µM.
